Data reported in patent publication US4053632A, “Compounds of spiro-amine type and methods for their use” (priority 1971, dated 1977).
In brackets after ≈: the same amount, converted by molar mass. Entries after “also recorded” stand apart in the source; their conditions may differ. Like-named read-outs stand apart in the source and are kept apart here.

Tests used:
aggressive behavior = experiment: Aggressive behavior (anti-aggressive test) in isolated mice; type: in vivo, mouse; details: for ED50: Mus musculus, ip, 1 h, read-out: Anti-aggresive test ED50; for effect on aggressive behavior: in words
Procedure: Anxiolytic effect was defined as a block of aggressive behavior in mice. Male mice kept isolated for 3 weeks or longer develop an aggressive behaviour when caged together. The method used followed that reported by Valzelli et al. (8) with the exception that two mice were tested together. The aggressiveness was scored during a five minute test according to the following scale:
0: the animals show no interest in each other except occasional nosing,
[…]: frequent vigorous nosing and tail twitching. The animals assume a fighting position and occasionally attack the partner -- no more than 3-4 times in the period of five minutes,
50: tail twitching, powerful attacks -- no more than 10 times during the test period,
75: the animals pursue their partners, attacking and biting for most of the time,
100: attacks over the entire period.
Controls administered with the solvent were tested. […] The animals were used for several experiments but with intervals of at least one week. Groups of 10 mice were used, and they were tested one hour after the administration of the drug. The animals were used as their own controls.

[1] = test system: DA turnover / dopamine receptor; experiment: Estimation of DA receptor blockade (DA turnover) in the rat brain; type: in vivo; details: for effect on DA turnover: in words; for minimal effective dose: ip, read-out: first significant dose, effect on brain dopamine level
Description: (§1) The estimation of catecholamine (CA) turnover was made by using the tyrosine hydroxylase inhibitor α-methyl tyrosine methyl ester (H 44/68) (4). This technique is based on the assumption that dopamine (DA) or noradrenaline (NA) receptor blockade will mediate an increase in CA turnover and result in lowered CA levels in the brain compared to H 44/68 alone. Since DA receptor blockade is assumed to be a biochemical correlate to antipsychotic action, this test gives a biochemical evidence for an antipsychotic effect. In this particular test the DA and NA levels in the brain were measured biochemically (5,6).

mice [2] = experiment: Acute toxicity in mice; details: in words
Procedure: (§3) The compounds were given by intravenous route to 3 mice. […] Seizures, gait, sedation and grip strength were recorded.
(§4) Acute toxicity was tested by the intraveneous, intraperitoneal and oral routes of administration. […] During the oral route a behavioral scoring system was used in order to relate changes in behavior to dose. The LD50 values were determined graphically from log dose -- response curves based on four doses with three animals per dose. Peripheral parasympatholytic effect was tested in mice by observing the mydriatic effect after intravenous injection (9) (four doses with three animals per dose). PD200 refers to the dose which increases the pupil width by 200%.

[3] = test system: uptake of noradrenaline (cortex slices); experiment: Inhibition of the uptake of tritiated noradrenaline in vivo; details: ip, read-out: Inhibition (50 %) of uptake in vivo, NA
Procedure: The animals were killed half or one hour after the administration of the drugs in vivo (i.p.). The slices, made from cortex, were preincubated for five minutes and incubated with 0.1 μmole per ml of ^3 H-noradrenaline for further five minutes. The incubation mixture consisted of 0.2 μmole of ^3 H-NA and the brain slices in 2 ml of Krebs-Henseleits buffer, pH 7.4. The radioactive ^3 H-NA taken up in the slices was extracted with ethanol and the amount was determined by liquid scintillation. The dose producing 50 per cent decrease of the active uptake (ED50) was determined graphically from dose response curves. At least four animals were used at each dose level.

motor activity = experiment: Motor activity in mice; type: in vivo, mouse; details: for ED50: Mus musculus, 1 h
Procedure: The exploratory activity of mice was recorded in a locomotion cage in which the movements were counted each time the animals cross-circuits on electrical current in the bottom plate. […] The animals were tested individually. Groups of six mice were used and the mice were only used once. The activity was expressed in percent of the activity of control groups ran simultaneously.
Sedative activity was defined as suppression of normal motor activity. The motor activity in mice was automatically recorded in a locomotion cage in which the movements are counted each time the animal short-circuits an electrical current in the bottom plate. […] The animals were tested individually. Groups of six mice were used. The activity was expressed in percent of the activity of control groups run simultaneously.

[4] = test system: conditioned avoidance response (CAR); experiment: Conditioned avoidance response in rats; type: in vivo, rat; details: for ED50: Rattus norvegicus, ip, 1 h, i.p.
Procedure: For this reason the conditioned avoidance test has been developed for initial screening of neuroleptics. Rats were trained to avoid electrical shock by jumping from one compartment to the other in a shuttle box. The conditioned stimulus consists of an auditory signal which after eight seconds was followed by the electrical shock. The rates were trained to a criterion of making eight out of ten responses correctly. The drugs were injected one hour before the test. The avoidance responses are expressed in percentage of those before administration. CD50 is the dose which reduces the avoidance response to 50% of control values.

pupil width (mydriasis) = details: mouse, in vivo
Procedure: as §3, §4

[5] = test system: uptake of 5-HT (midbrain slices); experiment: Inhibition of the uptake of tritiated 5-HT in vitro (brain slices); type: biochemical, mouse
in vivo = details: mouse
Procedure: as §3, §4

mice [6] = experiment: Behavioral observation (ptosis, catatonia) in mice; type: in vivo, mouse
[7] = test system: methamphetamine induced hyperactivity; experiment: Antagonism of methamphetamine-induced hyperactivity; type: in vivo, mouse; details: mice, FIG. 1, in words
Procedure: Sedatives (e.g. barbiturates, benzodiazepines and propandiols) on the other hand generally potentiate the induced hyperactivity. The interaction with amphetamines consequently gives an indication of the mechanism of a drug. Male mice were pretreated with the test drug 30 minutes before the administration of methamphetamine 3 mg/kg i.p. After 20 minutes the spontaneous motor activity was measured for 20 minutes by an Animex activity meter, which can distinguish between slight and considerable motion. The animals were tested in groups of three and used only once. Control groups treated with saline alone or the test drug and saline according to the testing schedule were run simultaneously.

Catalepsy [8] = type: in vivo
Description: (§2) Using the method and intensity scaring system described by Costall and Naylar, (7), the cataleptic properties of SIR 109 and chloropromazine were studied. Briefly, an animal was classed as cataleptic if it remained in an abnormal position for 15 seconds. Additionally, the duration the animal held this position was converted to a numerical scare as an indication of the intensity of the catalepsy.

catalepsy [9] = experiment: Catalepsy; type: in vivo; details: rat
Description: as §2

[10] = test system: uptake of noradrenaline (cortex slices); experiment: Inhibition of the uptake of tritiated noradrenaline in vitro (brain slices); type: biochemical; details: dl-noradrenaline 10^-7 M
[11] = test system: uptake of 5-HT (midbrain slices); experiment: Inhibition of the uptake of tritiated 5-HT in vivo; parameters: species or system mouse; details: Mus musculus, ip, 0.5 h; i.p., in vivo; read-out: Inhibition (50 %) of uptake in vivo, 5-HT
Procedure: The drugs were administered intraperitoneally half an hour before the animals were killed and the midbrain was taken out and sliced and incubated in a mixture consisting of, per 100 mg of brain slices, 0.2 μmole of ^3 H-5-HT and 1 μmole of glucose in 2 ml of Krebs-Henseleit buffer, pH 7.4. The incubation time was 5 minutes with 5 minutes of preincubation before ^3 H-5-HT was added. The radioactive ^3 H-5-HT taken up in the slices was extracted with ethanol and the amount was determined by liquid scintillation. The dose producing 50 per cent decrease of the active uptake (ED50) was determined graphically from dose response curves. Active uptake is defined as that part of the radioactive uptake which is inhibited by a high concentration of cocaine. All doses were given at least to four animals.

[12] = test system: NA turnover / noradrenaline receptor; experiment: Estimation of NA receptor blockade (NA turnover) in the rat brain; type: in vivo; details: for minimal effective dose: ip, read-out: first significant dose, effect on brain noradrenaline level
Description: as §1

Solubility in water = type: physicochemical; details: hydrochloride
[13] = test system: conditioned avoidance response (CAR); details: general knowledge, in words; cited from earlier work
[14] = rat, after H 44/68 250 mg/kg i.p.

CN(C)C1C=CC2(CC1)c1ccccc1CCc1ccc(Cl)cc12 (racemic) [SIR 109, 3'-chloro-10', 11'-dihydro-4-(dimethylamino)spiro[2-cyclohexene-1,5'(5'H)-dibenzo[a,d]cycloheptene]]
ED50 (aggressive behavior; i.p., mice): 0.27 mg/kg
effect on aggressive behavior (aggressive behavior; mice): potent at a dose which does not cause sedation; also recorded: strong effect of SIR 109 on aggressive behavior at non-sedative doses
effect on DA turnover [1]: effects DA turnover at about the same dose; also recorded: about as potent as chlorpromazine
minimal effective dose [1, 14]: 5 mg/kg
acute toxicity versus CPZ (mice [2]): considerably less toxic than CPZ both after i.v., i.p. and oral administration in the mice; also recorded: considerably less toxic after acute administration
ED50 [3]: 40 mg/kg
ED50 (motor activity; mice, read-out: Motor activity ID50): 5 mg/kg
ED50 (motor activity; ip, i.p., mice, read-out: Motor activity ID50 (Table 4)): 5 mg/kg
sedation / tranquilizing effect (motor activity; in words): tranquilizing effect of the compound; also recorded: strongly sedative or tranquilizing
sedation (motor activity) versus CPZ (motor activity; mice, in words): caused sedation in the mice at about the same dose as CPZ; also recorded: about as potent as chlorpromazine
ED50 ([4]; rat, read-out: CAR CD50): 7.5 to 10 mg/kg
ED50 ([4]; read-out: CAR ED50 (Table 4)): 7.5 to 10 mg/kg
effect on conditioned avoidance response ([4]; rat, in words): somewhat less active than chlorpromazine; also recorded: about as potent as chlorpromazine
peripheral (parasympatholytic) effects (pupil width (mydriasis)): weak peripheral effects
PD200 (Table 4) (pupil width (mydriasis); iv, 10 min): > 40 mg/kg
Inhibition (50 %) of uptake in vitro, 5-HT [5]: 1.3 µg/mL
LD50 at 24 h (in vivo; ip): 185 mg/kg
LD50 at 24 h (in vivo; iv): 40 mg/kg
LD50 at 24 h (in vivo; po): 250 mg/kg
threshold dose for ptosis (mice [6]; mouse, in vivo): 31 mg/kg
catatonic state (mice [6]; mouse, in vivo, po): did not cause any catatonic state
block of methamphetamine induced hyperactivity [7]: blocked methamphetamine induced hyperactivity in mice; also recorded: about as potent as chlorpromazine
ED50 (Catalepsy [8]; in vivo, ip, rat): 25 mg/kg
Catalepsy intensity score (catalepsy [9]): 0.75
cataleptic effect (catalepsy [9]; in words): weak cataleptic effect in the rat; also recorded: intensity of catalepsy was considerably lower after SIR 109 compared to CPZ; also recorded: low cataleptic action
Inhibition (50 %) of uptake in vitro, NA [10]: 1.5 µg/mL
ED50 [11]: > 40 mg/kg
effect on NA turnover / selectivity versus DA turnover ([12]; in words): seems to be more selective than chlorpromazine since it influences NA turnover first at higher doses; also recorded: more selective compound than chlorpromazine since it affects NA turnover first at higher doses
minimal effective dose [12, 14]: 10 to 15 mg/kg

CNC1C=CC2(CC1)c1ccccc1C=Cc1ccccc12 (stereo not drawn) [Example 12]
solubility (Solubility in water): ~10000 µg/mL (≈ 34.8 mM)

CN(C)CCCN1c2ccccc2Sc2ccc(Cl)cc21 [Chlorpromazine, reference compound]
ED50 (aggressive behavior): 2 mg/kg
effect on aggressive behavior (aggressive behavior; mice): effective first at sedative doses
minimal effective dose ([1]; Rattus norvegicus): 5 mg/kg
effect on DA turnover [1]: effects DA turnover at about the same dose
inhibition of learned responses [13]: inhibit many different types of learned responses
ED50 ([4]; read-out: CAR ED50 (Table 4)): 5 mg/kg
LD50 at 24 h (in vivo; ip): 92 mg/kg
LD50 at 24 h (in vivo; iv): 26 mg/kg
LD50 at 24 h (in vivo; po): 190 mg/kg
threshold dose for ptosis (mice [6]; mice): 4 mg/kg
dose from which catatonic state was prominent (mice [6]; orally, mouse): ≥ 31 mg/kg
block of methamphetamine induced hyperactivity [7]: blocked methamphetamine induced hyperactivity in mice
ED50 (Catalepsy [8]; rat, in vivo, ip): 7 mg/kg
Catalepsy intensity score (catalepsy [9]; in vivo): 1.0
minimal effective dose ([12]; Rattus norvegicus): 5 mg/kg
